Measured values reported in patent US20220071976A1 (CHASE THERAPEUTICS CORPORATION, priority 2018, published 2022).
Entries after “also recorded” stand apart in the source; their conditions may differ.

Key:
[1] = cited from earlier work; for improvement over baseline versus placebo on the MADRS: endpoint week 8, pramipexole 1.0 mg/day, fluoxetine 20 mg/day
[2] = high doses of pramipexole; cited from earlier work

| SMILES | effect on dose-limiting gastro-intestinal adverse events of pramipexole (concomitant oral administration of domperidone with high doses of pramipexole) | improvement over baseline versus placebo on the MADRS [1] | subjects reaching first intolerable dose FID-1 (human, in vivo, po) | dose limiting toxicity (pramipexole alone, single oral increasing doses) | activity in animal behavior tests simulating symptoms of depression [2] | patients reporting nausea ([1]; pramipexole 5.0 mg/day group) [%] | patients reporting vomiting ([1]; pramipexole 5.0 mg/day group) [%] | patients who discontinued treatment prematurely, mainly because of adverse events ([1]; pramipexole 5.0 mg/day group) [%] | improvement at week 8 (change from baseline) ([1]; pramipexole 5.0 mg/day group, scale not stated, no p value because of high drop-out rate) |
| --- | --- | --- | --- | --- | --- | --- | --- | --- | --- |
| O=c1[nH]c2ccccc2n1CCCN1CCC(n2c(=O)[nH]c3cc(Cl)ccc32)CC1 [domperidone, 5-chloro-1-(1-[3-(2-oxo-2,3-dihydro-1H-benzo[d]imidazol-1-yl)propyl]piperidin-4-yl)-1H-benzo[d]imidazol-2(3H)-one] | prevented the occurrence of dose-limiting gastro-intestinal adverse events; also recorded: attenuated dose-limiting gastro-intestinal adverse effects | – | – | – | – | – | – | – | – |
| CNCCC(Oc1ccc(C(F)(F)F)cc1)c1ccccc1 (stereo not shown) [fluoxetine] | – | significantly better improvement over baseline than the placebo group | – | – | – | – | – | – | – |
| CCCN[C@H]1CCc2nc(N)sc2C1 [pramipexole, (S)-6-propylamino-4,5,6,7-tetrahydro-1,3-benzothiazole-2-amine] | – | significantly better improvement over baseline than the placebo group | All subjects reached FID-1 | gastro-intestinal adverse events in all subjects | active | 76 | 39 | 57.6 | −15.00 |
